Measurements published in US20160137746A1, “METHODS FOR TREATING HIGH CARDIOVASCULAR RISK PATIENTS WITH HYPERCHOLESTEROLEMIA” (Sanofi Biotechnology, priority 2014, published 2016).

How the values were obtained:
[1] = tested on: high cardiovascular risk patients with hypercholesterolemia; test: ODYSSEY COMBO I: lipid efficacy of alirocumab vs placebo, add-on to maximally tolerated statin, 52 weeks; format: in vivo, human
Excerpt: Each of the COMBO studies was randomized, double-blinded, and placebo-controlled.
The primary efficacy endpoint for each study was the difference between treatment arms in the percent change in LDL-C from baseline to Week 24.
Apo, apolipoprotein; HDL-C, high-density lipoprotein cholesterol; ITT, intent-to-treat; LDL-C, low-density lipoprotein cholesterol; Lp(a), lipoprotein (a); TG, triglycerides.
COMBO I was a Phase 3, randomized, double-blind, placebo-controlled, parallel-group, multicenter, 52-week study.
After randomization, patients entered a double-blind treatment period of 52 weeks. […] Patients randomized to placebo received a 1 ml SC placebo injection from an identical auto-injector.
To maintain blinding, the patient and investigator were not informed of the Week 8 LDL-C levels (or any lipid values after randomization); continuation or up-titration of dose occurred in an automated and blinded manner.
Primary analyses of efficacy endpoints were conducted using an ITT approach (based on the ITT population defined above), including all lipid data, regardless of whether the patient was continuing therapy or not. This corresponds to ITT estimands, defined for primary and key secondary endpoints. In addition, analyses were also conducted using an on-treatment approach (based on the mITT population defined above), including lipid data collected during the efficacy treatment period. This corresponds to on-treatment estimands of key secondary endpoints.
With regards to the primary efficacy analysis (ITT approach), the percent change in calculated LDL-C from baseline to Week 24 was analyzed using a mixed-effect model with repeated measures (MMRM) approach. All post-baseline data available from Week 4 to Week 52 analysis windows were used and missing data were accounted for by the MMRM.

[2] = tested on: high cardiovascular risk patients with hypercholesterolemia; test: ODYSSEY COMBO I: safety (TEAEs, adjudicated CV events, laboratory PCSA, low LDL-C)
Method: Safety was assessed through adverse event (AE) reporting (including adjudicated cardiovascular events), laboratory analyses, and vital signs measurement. Since the LDL-C-lowering effects of PCSK9 inhibition on top of a statin are unknown, a number of AEs were defined as being of special interest and were monitored, including alanine aminotransferase abnormalities, allergic events, hemolytic anemia, pregnancy, overdose with study drug, neurologic events, ophthalmic events, and local injection site reactions. AEs were determined to be of special interest based on review of previous clinical trials, correspondence with regulatory authorities and the Data Monitoring Committee, the use of a monoclonal antibody in this study, and the route of drug administration.
AEs (including adjudicated cardiovascular events), laboratory parameters, and vital signs were reported descriptively, based on the safety population (all randomized patients who received at least 1 dose or partial dose of study treatment). The safety analysis focused on the treatment-emergent AE period defined as the time from the first double-blind dose to the last double-blind dose of the investigational product +70 days (10 weeks).
The safety population included all randomized patients who received at least one dose or part of a dose of the double-blind IMP.
Safety analyses were descriptive, performed on the safety population according to treatment actually received. For analysis of TEAE and PCSA, the safety analysis focused on the TEAE period defined as the time from the first dose of double-blind IMP up to 70 days after the last double-blind injection.

[3] = ITT, Week 24, listed as alirocumab
[4] = Week 24, 'Combo I: Overall Results' paragraph
[5] = alirocumab patients with LDL-C <25 mg/dL

## Alirocumab: human anti-PCSK9 antibody; HCVR SEQ ID NO:1, LCVR SEQ ID NO:6; CDRs SEQ ID NOs 2/3/4/7/8/10
[1]; 32 of 191 patients with at least one injection after Week 12
  Patients with automatic up-titration at Week 12 from 75 mg Q2W to 150 mg Q2W (Week 8 LDL-C ≧70 mg/dL): 16.8%
[1]; 'Combo I: Overall Results' paragraph
  Patients who reached LDL-C <70 mg/dL despite baseline LDL-C >190 mg/dL: 32%
[1]; ITT, Week 4
  Calculated LDL-C change from baseline, LS mean: -1.308 mmol/L
  Calculated LDL-C change from baseline, LS mean (SE): −50.5 (1.7) mg/dL
  Calculated LDL-C value, LS mean: 1.327 mmol/L
  Calculated LDL-C value, LS mean (SE): 51.2 (1.7) mg/dL
  Calculated LDL-C, LS mean (SE) percent change from baseline: −50.6 (1.7) %
[1]; ITT, Week 8
  Calculated LDL-C change from baseline, LS mean: -1.372 mmol/L
  Calculated LDL-C change from baseline, LS mean (SE): −53.0 (1.7) mg/dL
  Calculated LDL-C value, LS mean: 1.264 mmol/L
  Calculated LDL-C value, LS mean (SE): 48.8 (1.7) mg/dL
  Calculated LDL-C, LS mean (SE) percent change from baseline: −51.6 (1.7) %
[1]; ITT, Week 12
  Apo-B percent change, LS mean difference vs placebo: placebo of −38.2%
  Calculated LDL-C change from baseline, LS mean: -1.207 mmol/L
  Calculated LDL-C change from baseline, LS mean (SE): −46.6 (2.0) mg/dL
  Calculated LDL-C percent change, LS mean difference vs placebo: placebo of −47.4%
  Calculated LDL-C value, LS mean: 1.428 mmol/L
  Calculated LDL-C value, LS mean (SE): 55.1 (2.0) mg/dL
  Non-HDL-C percent change, LS mean difference vs placebo: placebo of −40.1%
  Total-C percent change, LS mean difference vs placebo: placebo of −26.4%
[1]; ITT, Week 12 (before possible up-titration)
  Calculated LDL-C, LS mean (SE) percent change from baseline: −46.3 (1.8) %
[1]; ITT, Week 12 (before possible up-titration), listed as alirocumab
  Calculated LDL-C, LS mean (SE) percent change from baseline: −46.3%
[1]; ITT, Week 12, listed as alirocumab
  Calculated LDL-C percent change, LS mean difference vs placebo: −47.4%
[1]; ITT, Week 16
  Calculated LDL-C change from baseline, LS mean: -1.345 mmol/L
  Calculated LDL-C change from baseline, LS mean (SE): −51.9 (1.9) mg/dL
  Calculated LDL-C value, LS mean: 1.291 mmol/L
  Calculated LDL-C value, LS mean (SE): 49.8 (1.9) mg/dL
  Calculated LDL-C, LS mean (SE) percent change from baseline: −50.5 (1.9) %
[1]; ITT, Week 24
  Apo-B percent change, LS mean difference vs placebo: placebo of −35.8%
  Calculated LDL-C change from baseline, LS mean: -1.303 mmol/L
  Calculated LDL-C change from baseline, LS mean (SE): −50.3 (2.0) mg/dL
  Calculated LDL-C percent change, LS mean difference (SE) vs placebo: −45.9 (3.3) %
  Calculated LDL-C value, LS mean: 1.332 mmol/L
  Calculated LDL-C value, LS mean (SE): 51.4 (2.0) mg/dL
  Calculated LDL-C, LS mean (SE) percent change from baseline: −48.2 (1.9) %
  Calculated LDL-C, LS mean difference (SE) vs placebo, pattern-mixture-model sensitivity analysis: −42.7 (3.7) %
  HDL-C percent change, LS mean difference vs placebo: placebo of 7.3%
  Lp(a) percent change, combined estimate for adjusted mean difference vs placebo: vs. placebo of −14.6%
  Non-HDL-C percent change, LS mean difference vs placebo: placebo of −37.5%
  Total-C percent change, LS mean difference vs placebo: placebo of −25%
[1]; [3]
  Calculated LDL-C percent change, LS mean difference (SE) vs placebo: −45.9%
  Calculated LDL-C, LS mean (SE) percent change from baseline: −48.2%
[1]; ITT, Week 24, not statistically significant (p 0.7597)
  Fasting TGs percent change, combined estimate for adjusted mean difference vs placebo: vs. placebo of −1.2%
[1]; ITT, Week 36
  Calculated LDL-C change from baseline, LS mean: -1.225 mmol/L
  Calculated LDL-C change from baseline, LS mean (SE): −47.3 (2.2) mg/dL
  Calculated LDL-C value, LS mean: 1.411 mmol/L
  Calculated LDL-C value, LS mean (SE): 54.5 (2.2) mg/dL
  Calculated LDL-C, LS mean (SE) percent change from baseline: −44.8 (2.5) %
[1]; ITT, Week 52
  Calculated LDL-C change from baseline, LS mean: -1.153 mmol/L
  Calculated LDL-C change from baseline, LS mean (SE): −44.5 (2.4) mg/dL
  Calculated LDL-C percent change, LS mean difference vs placebo: placebo of −43%
  Calculated LDL-C value, LS mean: 1.483 mmol/L
  Calculated LDL-C value, LS mean (SE): 57.2 (2.4) mg/dL
  Calculated LDL-C, LS mean (SE) percent change from baseline: −42.5 (2.5) %
[1]; ITT, Week 52, listed as alirocumab
  Calculated LDL-C, LS mean (SE) percent change from baseline: −42.5%
[1]; On-treatment, Week 12
  Calculated LDL-C percent change, LS mean difference vs placebo: placebo of −49.3%
[1]; On-treatment, Week 24
  Apo-B percent change, LS mean difference vs placebo: placebo of −37.5%
  Calculated LDL-C percent change, LS mean difference (SE) vs placebo: −49.9%
  Calculated LDL-C, LS mean (SE) percent change from baseline: −50.7 (1.9) %
  Non-HDL-C percent change, LS mean difference vs placebo: placebo of −40.4%
[1]; Week 24, FIG. 5
  Percent LDL-C reduction vs placebo within demographic and patient subgroups: seen at every level within each subgroup
[1]; [4]
  Absolute mean decrease from baseline in LDL-C: -90.8 mg/dL
  Patients who achieved LDL-C <100 mg/dL: 57%
[1]; baseline to Week 24
  Change in triglyceride levels: No significant change
  HDL-C percent change from baseline: 3.5 (1.1) %
[1]; patients with dose increase to 150 mg Q2W at week 12
  Additional mean LDL-C reduction at week 24 compared with week 12: 22.8%
[2]; TEAE period
  Ischemic events (within SOC Cardiac disorders): 9 events
  SAEs reported: 12.6%
  SOC Cardiac disorders: 8.2%
  SOC Metabolism and nutrition disorder: 10.1%
  SOC eye disorders: 4.3%
[2]; alirocumab group as a whole
  Arthralgia rate: 3.9%
  Invertebral disc protusion rate: 1.0%
  Myalgia rate: 3.4%
  Osteoarthritis rate: 3.9%
[2]; [5]
  Arthralgia rate: 5.1%
  Invertebral disc protusion rate: 5.1%
  Myalgia rate: 7.7%
  Osteoarthritis rate: 7.7%
[2]; as stated in text b249 (5 patients)
  Patients with cardiovascular events that were positively adjudicated: 2.4%
[2]; in vivo
  PCSA: decrease of hemoglobin from baseline ≧20 g/L: 6.3%
  PCSA: new cases of erythrocytes values ≧6 Tera/L: 2.5%
  Patients with impaired glucose control at baseline classified as diabetic in the TEAE period: 7.4%
  Patients with two consecutive calculated LDL-C values <25 mg/dL: 19.5%
  Safety in patients with two consecutive calculated LDL-C <25 mg/dL: No particular safety concern
[2]; including 2 serious cases
  Asthma (general allergic reactions), cases: 5 (2.4%) No. (%)
[2]; myocardial infarction and pulmonary embolism
  Deaths during treatment period: 1.0%
[2]; overall results
  Tolerability: generally well tolerated
[2]; safety population
  Time to the first calculated LDL-C value <15 mg/dL, mean (SD): 12.51 (6.83) weeks
  Time to the first calculated LDL-C value <15 mg/dL, median: 13.57 weeks
  Time to the first calculated LDL-C value <25 mg/dL, mean (SD): 11.48 (9.72) weeks
  Time to the first calculated LDL-C value <25 mg/dL, median: 8.00 weeks
[2]; safety population, to week 52
  Any patients with treatment emergent cardiovascular events confirmed by adjudication: −6 (2.9) No. (%) of patients
  Arthralgia (TEAE preferred term): 8 (3.9) No. (%) of patients
  Congestive heart failure requiring hospitalization, adjudicated: 0 No. (%) of patients
  Coronary heart disease death (including undetermined cause), adjudicated: 1 (0.5) No. (%) of patients
  Dizziness (TEAE preferred term): 11 (5.3) No. (%) of patients
  Fatal and non-fatal ischemic stroke (including stroke not otherwise specified), adjudicated: −2 (1.0) No. (%) of patients
  Injection site reaction (TEAE preferred term): 11 (5.3) No. (%) of patients
  Ischemia driven coronary revascularization procedure, adjudicated: 3 (1.4) No. (%) of patients
  Local injection site reactions (AE of special interest): 11 (5.3) No. (%) of patients
  Nasopharyngitis (TEAE preferred term): 15 (7.2) No. (%) of patients
  Neurocognitive disorders (AE of special interest): 0 (0) No. (%) of patients
  Neurological events (AE of special interest): 5 (2.4) No. (%) of patients
  Non-cardiac chest pain (TEAE preferred term): 2 (1.0) No. (%) of patients
  Non-fatal myocardial infarction, adjudicated: 1 (0.5) No. (%) of patients
  Potential general allergic reaction events (AE of special interest): 18 (8.7) No. (%) of patients
  Sinusitis (TEAE preferred term): 11 (5.3) No. (%) of patients
  TEAE leading to death: 2 (1.0) No. (%) of patients
  TEAEs: 157 (75.8) No. (%) of patients
  TEAEs leading to discontinuation: 13 (6.3) No. (%) of patients
  Treatment-emergent SAEs: 26 (12.6) No. (%) of patients
[2]; safety population, to week 52, listed as alirocumab
  Local injection site reactions (AE of special interest): 11 (5.3%) No. (%) of patients
